For this experiment, the target named is TrkA (tropomyosin receptor kinase A) (Homo sapiens, UniProt P04629). Description: TR-FRET. Type of experiment: biochemical.

The structures appear in SMILES notation.

TrkA (tropomyosin receptor kinase A), sequence (P04629 441-796 limits assumed): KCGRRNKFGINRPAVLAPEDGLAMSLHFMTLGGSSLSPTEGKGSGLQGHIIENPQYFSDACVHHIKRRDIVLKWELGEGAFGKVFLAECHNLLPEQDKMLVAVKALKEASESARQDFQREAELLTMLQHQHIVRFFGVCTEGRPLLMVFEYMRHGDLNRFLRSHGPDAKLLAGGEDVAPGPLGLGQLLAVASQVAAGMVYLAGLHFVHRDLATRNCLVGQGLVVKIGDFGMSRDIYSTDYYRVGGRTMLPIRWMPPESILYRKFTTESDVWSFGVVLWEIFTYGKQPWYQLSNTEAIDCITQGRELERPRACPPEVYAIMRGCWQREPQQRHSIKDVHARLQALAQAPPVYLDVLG

Broadly, the IC50 is the concentration that gives 50% inhibition. Read a low IC50 as greater potency in that assay. On to `Nc1ncc(-c2cnn(C3CCNCC3)c2)cc1-c1nc2ccccc2o1` [KRC-108, 3-(benzo[d]oxazol-2-yl)-5-(1-(piperidin-4-yl)-1H-pyrazol-4-yl)pyridin-2-amine], for which the IC50 turned out to be 43.3 nM.

For the origin of these results see article PMC9252884 (Biomolecules & Therapeutics, 2022).
